According to PubChem BioAssay (NCI):
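Dose response: 5 concentrations. Exposure: 48 h. Format: 96-well plates. Endpoint: linear interpolation; highest concentration if not reached. GI50 marks 50% less growth. Definition used: TGI = concentration required for complete inhibition of growth.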

Tests used:
Assay in all cases: NCI tumour cell line growth inhibition, 48 h
SNB-78 CNS = system: SNB-78 CNS
KM20L2 colon = system: KM20L2 colon
P388 leukemia = system: P388 leukemia
786-0 renal = system: 786-0 renal
U251 CNS = system: U251 CNS
HT29 colon = system: HT29 colon
SNB-19 CNS = system: SNB-19 CNS
COLO 205 colon = system: COLO 205 colon
TK-10 renal = system: TK-10 renal
HOP-62 NSCLC = system: HOP-62 NSCLC
OVCAR-4 ovarian = system: OVCAR-4 ovarian
SK-MEL-28 melanoma = system: SK-MEL-28 melanoma
IGROV1 ovarian = system: IGROV1 ovarian
DMS 114 small cell lung = system: DMS 114 small cell lung
MALME-3M melanoma = system: MALME-3M melanoma
CAKI-1 renal = system: CAKI-1 renal
OVCAR-8 ovarian = system: OVCAR-8 ovarian
SF-268 CNS = system: SF-268 CNS
ACHN renal = system: ACHN renal
XF 498 CNS = system: XF 498 CNS
NCI-H522 lung = system: NCI-H522 lung
OVCAR-5 ovarian = system: OVCAR-5 ovarian
HOP-92 NSCLC = system: HOP-92 NSCLC
HCC-2998 colon = system: HCC-2998 colon
NCI-H23 lung = system: NCI-H23 lung
HCT-15 colon = system: HCT-15 colon
UACC-62 melanoma = system: UACC-62 melanoma
SW-620 colon = system: SW-620 colon
CCRF-CEM leukemia = system: CCRF-CEM leukemia
NCI-H460 lung = system: NCI-H460 lung
LOX IMVI melanoma = system: LOX IMVI melanoma
M19-MEL melanoma = system: M19-MEL melanoma
SF-295 CNS = system: SF-295 CNS
M14 melanoma = system: M14 melanoma
SK-MEL-5 melanoma = system: SK-MEL-5 melanoma
UO-31 renal = system: UO-31 renal
SK-MEL-2 melanoma = system: SK-MEL-2 melanoma
DMS 273 small cell lung = system: DMS 273 small cell lung
DLD-1 colon = system: DLD-1 colon
LXFL 529 NSCLC = system: LXFL 529 NSCLC
SF-539 CNS = system: SF-539 CNS
SK-OV-3 ovarian = system: SK-OV-3 ovarian
RXF-631 renal = system: RXF-631 renal
SN12C renal = system: SN12C renal
A498 renal = system: A498 renal
UACC-257 melanoma = system: UACC-257 melanoma
EKVX NSCLC = system: EKVX NSCLC
HL-60(TB) leukemia = system: HL-60(TB) leukemia
HOP-18 NSCLC = system: HOP-18 NSCLC
K-562 leukemia = system: K-562 leukemia
KM12 colon = system: KM12 colon
HCT-116 colon = system: HCT-116 colon
OVCAR-3 ovarian = system: OVCAR-3 ovarian
A549 NSCLC = system: A549 NSCLC
SNB-75 CNS = system: SNB-75 CNS
NCI-H226 lung = system: NCI-H226 lung
RPMI-8226 leukemia = system: RPMI-8226 leukemia
RXF 393 renal = system: RXF 393 renal
SR leukemia = system: SR leukemia
MOLT-4 leukemia = system: MOLT-4 leukemia

CCc1c2c(nc3ccc(OC(=O)N4CCC(N5CCCCC5)CC4)cc13)-c1cc3c(c(=O)n1C2)COC(=O)[C@]3(O)CC
GI50 (SNB-78 CNS): 53.7 µM
TGI (SNB-78 CNS): > 100 µM
GI50 (KM20L2 colon): 17.2 µM
TGI (KM20L2 colon): 66.3 µM
GI50 (P388 leukemia): 10.1 µM
TGI (P388 leukemia): 40.2 µM

Cc1c(C(=O)O)oc2ccc([N+](=O)[O-])cc12
TGI (786-0 renal): > 100 µM
TGI (U251 CNS): > 100 µM
TGI (HT29 colon): > 100 µM
TGI (SNB-19 CNS): > 100 µM
TGI (COLO 205 colon): > 100 µM
TGI (TK-10 renal): > 100 µM
TGI (HOP-62 NSCLC): > 100 µM
TGI (OVCAR-4 ovarian): > 100 µM
TGI (SK-MEL-28 melanoma): > 100 µM
TGI (IGROV1 ovarian): > 100 µM
TGI (DMS 114 small cell lung): > 100 µM
TGI (MALME-3M melanoma): > 100 µM
TGI (CAKI-1 renal): > 100 µM
TGI (OVCAR-8 ovarian): > 100 µM
TGI (SF-268 CNS): > 100 µM
TGI (ACHN renal): > 100 µM
TGI (XF 498 CNS): > 100 µM
TGI (NCI-H522 lung): > 100 µM
TGI (OVCAR-5 ovarian): > 100 µM
TGI (HOP-92 NSCLC): > 100 µM
TGI (HCC-2998 colon): > 100 µM
TGI (NCI-H23 lung): > 100 µM
TGI (HCT-15 colon): > 100 µM
TGI (UACC-62 melanoma): > 100 µM
TGI (SW-620 colon): > 100 µM
TGI (CCRF-CEM leukemia): > 100 µM
TGI (SNB-78 CNS): > 100 µM
TGI (NCI-H460 lung): > 100 µM
TGI (LOX IMVI melanoma): > 100 µM
TGI (M19-MEL melanoma): > 100 µM
TGI (SF-295 CNS): > 100 µM
TGI (M14 melanoma): > 100 µM
TGI (SK-MEL-5 melanoma): > 100 µM
TGI (UO-31 renal): > 100 µM
TGI (SK-MEL-2 melanoma): > 100 µM
TGI (DMS 273 small cell lung): > 100 µM
TGI (DLD-1 colon): > 100 µM
TGI (LXFL 529 NSCLC): > 100 µM
TGI (SF-539 CNS): > 100 µM
TGI (KM20L2 colon): > 100 µM
TGI (SK-OV-3 ovarian): > 100 µM
TGI (RXF-631 renal): > 100 µM
TGI (SN12C renal): > 100 µM
TGI (A498 renal): > 100 µM
TGI (UACC-257 melanoma): > 100 µM
TGI (EKVX NSCLC): > 100 µM
TGI (HL-60(TB) leukemia): > 100 µM
TGI (HOP-18 NSCLC): > 100 µM
TGI (K-562 leukemia): > 100 µM
TGI (KM12 colon): > 100 µM
TGI (HCT-116 colon): > 100 µM
TGI (OVCAR-3 ovarian): > 100 µM
TGI (A549 NSCLC): > 100 µM

C=C(C)C1C/C=C(/C)CCCC2(CCC3=C(CC(C(=C)C)C/C=C(/C)CCC3)O2)C(=O)C1 (stereo not drawn)
TGI (786-0 renal): > 100 µM
TGI (U251 CNS): > 100 µM
TGI (HT29 colon): > 100 µM
TGI (SNB-19 CNS): > 100 µM
TGI (COLO 205 colon): > 100 µM
TGI (TK-10 renal): > 100 µM
TGI (SNB-75 CNS): > 100 µM
TGI (HOP-62 NSCLC): > 100 µM
TGI (OVCAR-4 ovarian): > 100 µM
TGI (SK-MEL-28 melanoma): > 100 µM
TGI (IGROV1 ovarian): > 100 µM
TGI (DMS 114 small cell lung): > 100 µM
TGI (MALME-3M melanoma): > 100 µM
TGI (NCI-H226 lung): > 100 µM
TGI (OVCAR-8 ovarian): > 100 µM
TGI (SF-268 CNS): > 100 µM
TGI (ACHN renal): > 100 µM
TGI (XF 498 CNS): > 100 µM
TGI (NCI-H522 lung): > 100 µM
TGI (HOP-92 NSCLC): > 100 µM
TGI (HCC-2998 colon): > 100 µM
TGI (NCI-H23 lung): > 100 µM
TGI (HCT-15 colon): > 100 µM
TGI (UACC-62 melanoma): > 100 µM
TGI (SW-620 colon): > 100 µM
TGI (CCRF-CEM leukemia): > 100 µM
TGI (SNB-78 CNS): > 100 µM
TGI (NCI-H460 lung): > 100 µM
TGI (LOX IMVI melanoma): > 100 µM
TGI (M19-MEL melanoma): > 100 µM
TGI (SF-295 CNS): > 100 µM
TGI (M14 melanoma): > 100 µM
TGI (UO-31 renal): > 100 µM
TGI (RPMI-8226 leukemia): > 100 µM
TGI (SK-MEL-2 melanoma): > 100 µM
TGI (DMS 273 small cell lung): > 100 µM
TGI (RXF 393 renal): > 100 µM
TGI (SR leukemia): > 100 µM
TGI (DLD-1 colon): > 100 µM
TGI (LXFL 529 NSCLC): > 100 µM
TGI (SF-539 CNS): > 100 µM
TGI (KM20L2 colon): > 100 µM
TGI (SK-OV-3 ovarian): > 100 µM
TGI (MOLT-4 leukemia): > 100 µM
TGI (SN12C renal): > 100 µM
TGI (A498 renal): > 100 µM
TGI (UACC-257 melanoma): > 100 µM
TGI (EKVX NSCLC): > 100 µM
TGI (HL-60(TB) leukemia): > 100 µM
TGI (HOP-18 NSCLC): > 100 µM
TGI (K-562 leukemia): > 100 µM
TGI (KM12 colon): > 100 µM
TGI (HCT-116 colon): > 100 µM
TGI (A549 NSCLC): > 100 µM
